Results reported in patent publication US20200368267A1, “PROPHYLACTIC AND/OR THERAPEUTIC AGENT FOR AMYOTROPHIC LATERAL SCLEROSIS” (KYOTO UNIVERSITY, priority 2017, published 2020).
Where a name gives a salt, the structure may show the parent alone.

System: mutant SOD1 Tg mice
Assay: ALS model mouse (Tg-G93A SOD1 mouse)
Assay type: in vivo
Conditions: 5 mg/kg intraperitoneal from 8th week for 5 weeks; mean±SD, n=26 per group; Kaplan-Meier

Work on `COc1cc(Nc2c(C#N)cnc3cc(OCCCN4CCN(C)CC4)c(OC)cc23)c(Cl)cc1Cl` [bosutinib (SKI-606), bosutinib] yielded a disease onset of 123.2 ± 9.1 days.

`COc1cc(Nc2c(C#N)cnc3cc(OCCCN4CCN(C)CC4)c(OC)cc23)c(Cl)cc1Cl` [bosutinib (SKI-606), bosutinib] showed a survival time of 164.1 ± 9.4 days.

System: MNs with mutant SOD1 gene (L144FVX)
Assay: Large scale screen using ALS MN (MN survival readout)
Assay type: cell-based, human
Conditions: 50 μM, positive control assays
Protocol: (§1) iPS cell cells containing LNI cassette were dissociated into single cells using Accutase, and seeded together with 1 μg/ml of doxycycline (TAKARA, Kusatsu, Japan) in N3 medium containing 1 μM retinoic acid, 1 μM SAG, 10 ng/ml BDNF, 10 ng/ml GDNF, and 10 ng/ml NT-3 on a 96 well plate (BD Bioscience) coated with Matrigel. The cells were fixed and stained on days 7 and 14. The number of viable MNs stained with βIII-tubulin was quantified by IN Cell Analyzer 6000 and expressed as the number of day 14/day 7. […] In this assay, therefore, βIII-tubulin positive neurons were defined as MN. Neurite and cell body were detected by optimized fluorescence levels, and the number of cell bodies having neurite was counted as the number of surviving neurons using IN Cell Developer toolbox software 1.9.
iPS cell cells containing LNI cassette were dissociated into single cells using Accutase, and seeded together with 1 ng/ml of doxycycline in N3 medium containing 1 μM RA, 1 μM SAG, 10 ng/ml BDNF, 10 ng/ml GDNF and 10 ng/ml NT-3 on a 96 well plate (BD Bioscience) coated with Matrigel. The libraries used for drug screening were Microsource US Drugs (Microsource Discovery Systems), Microsource International Drugs (Microsource Discovery Systems), and kinase inhibitor purchased from EMD and Selleck Chemicals. Using Integrity and Nextbio data base, existing drugs and test drugs in clinical trials were selected from these libraries and used for throughput screening. […] DMSO was used as a negative control, and kenpaullone, which is a candidate drug for ALS treatment, was used as a positive control. The number of viable MNs stained with βIII-tubulin was quantified by IN Cell Analyzer 6000.

`O=C1Cc2c([nH]c3ccc(Br)cc23)-c2ccccc2N1` [kenpaullone] was tested, and the “positive control effect on ALS MN survival” value was “positive effect was confirmed”.

Same assay, conditions: compounds at final concentration 10 μM added on day 7, cells fixed and stained on day 14; viable MNs stained with βIII-tubulin

Compared with `O=C(/C=C/C=C/c1ccc2c(c1)OCO2)N1CCCCC1` [piperine], `COc1ccc2c(c1OC)C(=O)O[C@@H]2[C@H]1c2cc3c(cc2CCN1C)OCO3` [hydrastine (1R, 9S)] is higher in MN index: 7.391 for the first, 7.525 for the second.

Compared with `Cc1nc(Nc2ncc(C(=O)Nc3c(C)cccc3Cl)s2)cc(N2CCN(CCO)CC2)n1` [dasatinib], `Cc1cc(Nc2cc(N3CCN(C)CC3)nc(Sc3ccc(NC(=O)C4CC4)cc3)n2)n[nH]1` [VX-680] is higher in MN index: 6.659 for the first, 9.578 for the second.

Going from `Cc1c(C)c2c(c(C)c1O)CCC(C)(CCCC(C)CCCC(C)CCCC(C)C)O2` (stereo not drawn) [alpha-tochopherol] to `CCN(CCCCOC(=O)c1ccc(OC)c(OC)c1)C(C)Cc1ccc(OC)cc1` (centres unmarked) [mebeverine hydrochloride], the MN index falls from 9.456 to 6.856.

Going from `O=C(O)CCC(=O)c1ccc(-c2ccccc2)cc1` [fenbufen] to `O=C(c1ccc(/C=C/c2n[nH]c3ccccc23)cc1)N1CCNCC1` [KW 2449], the MN index rises from 7.224 to 7.722.

Compared with `Cc1ccc(Nc2nccc(N(C)c3ccc4c(C)n(C)nc4c3)n2)cc1S(N)(=O)=O` [pazopanib hydrochloride], `CCN(CC)Cc1cc(Nc2ccnc3cc(Cl)ccc23)ccc1O` [amodiaquine dihydrochloride] is lower in MN index: 9.533 for the first, 8.98 for the second.

Compared with `Oc1ccc(O)cc1` [hydroquinone], `CCCCOC(=O)c1ccc(N)cc1` [butamben] is lower in MN index: 7.957 for the first, 7.391 for the second.

First: CN(C)CCCn1cc(C2=C(c3c[nH]c4ccccc34)C(=O)NC2=O)c2ccccc21 [bisindolylmaleimide I]
Second: Cn1cc(C2=C(c3cn(C4CCN(Cc5ccccn5)CC4)c4ccccc34)C(=O)NC2=O)c2ccccc21 [enzastaurin]
The MN index of the first is lower: 7.963 for the first, 9.841 for the second.

First: C[C@@H](Oc1cc(-c2cnn(C3CCNCC3)c2)cnc1N)c1c(Cl)ccc(F)c1Cl [PF-2341066]
Second: CCOc1ccn(-c2ccc(F)cc2)c(=O)c1C(=O)Nc1ccc(Oc2ccnc(N)c2Cl)c(F)c1 [BMS 777607]
The MN index of the first is lower: 7.595 for the first, 8.551 for the second.

Going from `CN1CCc2cccc3c2[C@H]1Cc1ccc(O)c(O)c1-3` [apomorphine hydrochloride] to `Cc1nc(N)sc1-c1ccnc(Nc2ccc(N3CCOCC3)cc2)n1` [CYC116], the MN index rises from 7.257 to 8.142.

First: CC1(C)O[C@@H]2C[C@H]3[C@@H]4C[C@H](F)C5=CC(=O)C=C[C@]5(C)[C@H]4[C@@H](O)C[C@]3(C)[C@]2(C(=O)CO)O1 [flunisolide]
Second: CCCC1O[C@@H]2C[C@H]3[C@@H]4CCC5=CC(=O)C=C[C@]5(C)[C@H]4[C@@H](O)C[C@]3(C)[C@]2(C(=O)CO)O1 (some centres unmarked) [budesonide]
The MN index of the first is lower: 7.857 for the first, 10.27 for the second.

First: Cc1cc2nc3c(=O)[nH]c(=O)nc-3n(C[C@H](O)[C@H](O)[C@H](O)CO)c2cc1C [riboflavin]
Second: CCN(CC)CCNC(=O)c1c(C)[nH]c(/C=C2\C(=O)Nc3ccc(F)cc32)c1C [sunitinib malate]
The MN index of the first is higher: 9.554 for the first, 8.133 for the second.

Going from `COc1cc2nccc(Oc3ccc(NC(=O)Nc4cc(C)on4)c(Cl)c3)c2cc1OC` [tivozanib] to `COc1cc(Nc2c(C#N)cnc3cc(OCCCN4CCN(C)CC4)c(OC)cc23)c(Cl)cc1Cl` [bosutinib (SKI-606), bosutinib], the MN index falls from 17.26 to 7.196.

Compared with `COCCNCc1ccc(-c2cc3nccc(Oc4ccc(NC(=S)NC(=O)Cc5ccc(F)cc5)cc4F)c3s2)nc1` [MGCD-265], `CNC(=O)c1ccccc1Sc1ccc2c(/C=C/c3ccccn3)n[nH]c2c1` [axitinib] is lower in MN index: 7.623 for the first, 7.353 for the second.

System: mutant SOD1 ALS MNs (ALS1)
Assay: MN survival assay and high content analysis
Assay type: cell-based, human
Conditions: added to MNs with bosutinib treatment
Protocol: as §1
Short interfering RNA (siRNA) was purchased from Life Technologies (siRNA ID of Src siRNA 1: s13414; siRNA ID of Src siRNA 2: s13413; siRNA ID of c-Abl siRNA 1: s866; siRNA ID of c-Abl siRNA 2: s864; siRNA ID of mTOR siRNA: s604). Scramble siRNA purchased from Life Technologies was used as a negative control of siRNA. iPS cells were dissociated and plated with dox in a 96 well plate. On day 7, siRNA was transfected with Lipofectamine RNAiMAX (Thermo Fisher Scientific). Viable MN was evaluated 4 days after transfection by immunostaining with βIII-tubulin, followed by analysis with IN Cell Analyzer 6000 and IN Cell Developer toolbox software 1.9.

With `CCN(CC)CCCC(C)Nc1ccnc2cc(Cl)ccc12` (centres unmarked) [chloroquine] the “effect of autophagy inhibitor on the protective effect of bosutinib in MN survival assay” value was “decreased the protective effect of bosutinib”.

Same assay, conditions: mutant SOD1 ALS MNs (ALS1); compound added day 7, counted day 14

`Cc1cn(-c2cc(NC(=O)c3ccc(C)c(Nc4nccc(-c5cccnc5)n4)c3)cc(C(F)(F)F)c2)cn1` [nilotinib] was tested, and the MN survival was “increased MN survival”.
`Cc1ccc(NC(=O)c2ccc(CN3CCN(C)CC3)cc2)cc1Nc1nccc(-c2cccnc2)n1` [imatinib] was tested, and the MN survival was “increased MN survival”.
